As usually defined, the IC50 is the midpoint of a concentration-inhibition curve.

In patent publication US11077100B2, “Tetrahydroquinoline derivatives as P2X7 receptor antagonists” (RaQualia Pharma Inc., priority 2017, dated 2021) one finds IC50 data, which are given here for 28 molecules.

In one assay the target is human P2X7 (Homo sapiens (Human), UniProt Q99572). Nature of the assay: Human P2X7 functional assay (Ca2+ influx, Fluo-4, FDSS). Format: cell-based. The following applies: antagonistic activity with respect to the human P2X7 receptor; BzATP final concentration 80 microM. In outline:
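HEK293 cells stably expressing C-terminally FLAG-tagged human P2X7, loaded with Fluo-4. Compounds were preincubated for 10 min at room temperature, then 80 μM BzATP (final) was added and Ca2+ fluorescence read at 540 nm (480 nm excitation) by FDSS. IC50 values come from 7-point curves, duplicate wells.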

The target in another assay is rat P2X7 (Rattus norvegicus (Rat), UniProt Q64663). Nature of the assay: Rat P2X7 functional assay (Ca2+ influx, Fluo-4, FDSS). The class given is cell-based. The following applies: HEK293 cells stably expressing rat P2X7; BzATP final 10 microM; 7-point dose-response; read-out: Antagonistic activities with respect to the rat P2X7 receptor (IC50). In outline: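 HEK293 cells stably expressing rat P2X7 (5,000/well, plated 24 h before) loaded with Fluo-4; compounds preincubated 10 min at room temperature, then Ca2+ rise after 10 microM BzATP (final) read on FDSS (480/540 nm). IC50 from 7-point curves, duplicate wells.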
rat P2X7, sequence (Q64663 whole entry): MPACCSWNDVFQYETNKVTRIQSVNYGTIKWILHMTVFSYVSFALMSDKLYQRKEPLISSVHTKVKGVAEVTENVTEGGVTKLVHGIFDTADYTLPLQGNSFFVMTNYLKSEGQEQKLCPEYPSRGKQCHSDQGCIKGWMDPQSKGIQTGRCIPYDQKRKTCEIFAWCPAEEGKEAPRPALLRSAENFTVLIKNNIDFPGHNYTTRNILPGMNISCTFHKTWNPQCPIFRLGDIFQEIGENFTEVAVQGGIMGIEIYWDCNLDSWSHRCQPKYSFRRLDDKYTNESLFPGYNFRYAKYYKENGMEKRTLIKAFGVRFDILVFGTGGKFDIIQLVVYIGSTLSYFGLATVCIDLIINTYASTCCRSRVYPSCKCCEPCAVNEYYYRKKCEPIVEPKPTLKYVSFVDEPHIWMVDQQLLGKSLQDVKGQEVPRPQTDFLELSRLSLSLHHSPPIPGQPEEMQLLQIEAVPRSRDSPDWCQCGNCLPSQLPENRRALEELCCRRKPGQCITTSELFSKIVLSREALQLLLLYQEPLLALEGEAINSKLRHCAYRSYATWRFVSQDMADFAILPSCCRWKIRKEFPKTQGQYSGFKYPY

human P2X7, sequence (Q99572 whole entry): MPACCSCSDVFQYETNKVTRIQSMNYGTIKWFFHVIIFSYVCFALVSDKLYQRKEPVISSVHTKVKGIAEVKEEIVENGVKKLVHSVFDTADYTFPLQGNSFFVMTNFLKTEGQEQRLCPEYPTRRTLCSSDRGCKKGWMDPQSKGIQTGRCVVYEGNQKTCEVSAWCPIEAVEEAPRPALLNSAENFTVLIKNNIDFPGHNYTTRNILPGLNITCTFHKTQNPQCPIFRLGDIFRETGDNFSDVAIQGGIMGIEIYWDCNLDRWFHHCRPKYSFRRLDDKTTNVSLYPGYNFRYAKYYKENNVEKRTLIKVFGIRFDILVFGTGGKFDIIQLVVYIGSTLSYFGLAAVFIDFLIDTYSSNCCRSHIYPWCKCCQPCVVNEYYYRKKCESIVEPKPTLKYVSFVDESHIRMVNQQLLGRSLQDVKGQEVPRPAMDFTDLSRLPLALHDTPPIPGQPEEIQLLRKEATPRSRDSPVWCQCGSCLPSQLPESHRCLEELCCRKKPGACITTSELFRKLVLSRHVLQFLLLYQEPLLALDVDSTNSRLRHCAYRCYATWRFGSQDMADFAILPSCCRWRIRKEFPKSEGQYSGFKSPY

Take `Cc1cc(Cl)cc(Cl)c1CNC(=O)C1CCC(O)(CO)c2ncccc21` (centres unmarked) [Example 33, N-(2,4-dichloro-6-methylbenzyl)-8-hy-droxy-8-(hydroxymethyl)-5,6,7,8-tetra-hydroxuqinoline-5-carboxamide]: the figures for the IC50 at human P2X7 and at rat P2X7 were under 0.05 µM and under 1 µM, respectively.

As to `O=C(NCc1ccc(F)cc1Cl)[C@@H]1CC[C@H](O)c2ncccc21` [Example 68, (5R,8S)-N-(2-chloro-4-fluorobenzyl)-8-hydroxy-5,6,7,8-tetrahydroquinoline-5-carboxamide], the concentration for half-maximal inhibition (IC50) on human P2X7 was under 0.05 µM; on rat P2X7, under 1 µM.

Regarding `O=C1CO[C@]2(CC[C@@](F)(C(=O)NCc3ccc(Cl)cc3Cl)c3cccnc32)CN1` [Example 295, (2R,5′S)-N-(2,4-dichlorobenzyl)-5′-fluoro-5-oxo-6′,7′-dihydro-5′H-spiro [morpholine-2,8′-quinoline]-5′-carboxamide], the IC50 is under 0.05 µM on human P2X7 and under 1 µM at rat P2X7.

For the molecule `C[C@]1(O)CC[C@@](F)(C(=O)NCC2(N3CCOCC3)CCCCC2)c2cccnc21` [Example 274, (5S,8S)-5-fluoro-8-hydroxy-8-methyl-N-((1-morpholinocyclohexyl)methyl)-5,6,7,8-tetrahydroquinoline-5-carboxamide], the half-maximal inhibitory concentration (IC50) against human P2X7 was under 0.05 µM; at rat P2X7, under 1 µM.

`C[C@@H](NC(=O)[C@]1(F)CC[C@](C)(O)c2ncccc21)c1ccc(F)cc1Cl` [Example 270, (5S,8S)-N-((R)-1-(2-chloro-4-fluorophenyl)ethyl)-5-fluoro-8-hydroxy-8-methyl-5,6,7,8-tetrahydroquinoline-5-carboxamide]: the IC50 at human P2X7 is under 0.05 µM; at rat P2X7, under 1 µM.

Take `O=C(NCc1ccc(F)c(F)c1F)[C@]1(F)CC[C@](O)(CO)c2ncccc21` [Example 309, (5S,8R)-5-fluoro-8-hydroxy-8-(hydroxymethyl)-N-(2,3,4-trifluorobenzyl)-5,6,7,8-tetrahydroquinoline-5-carboxamide]: the concentration for half-maximal inhibition (IC50) at human P2X7 is 1 to 3 µM; on rat P2X7, under 1 µM.

In the case of `O=C(NCc1c(F)cc(Cl)cc1F)[C@]1(F)CC[C@@](O)(CO)c2ncccc21` [Example 324, (5S,8S)-N-(4-chloro-2,6-difluorobenzyl)-5-fluoro-8-hydroxy-8-(hydroxymethyl)-5,6,7,8-tetrahydroquinoline-5-carboxamide], the half-maximal inhibitory concentration (IC50) is 0.05 to 0.1 µM on human P2X7 and under 1 µM on rat P2X7.

On to `O=C(NCc1c(Cl)cccc1C(F)(F)F)[C@]1(F)CC[C@H](O)c2ncccc21` [Example 179, (5S,8S)-N-(2-chloro-6-(trifluoromethyl)benzyl)-5-fluoro-8-hydroxy-5,6,7,8-tetrahydroquinoline-5-carboxamide], for which the IC50 on human P2X7 is under 0.05 µM; at rat P2X7, under 1 µM.

Regarding `CNCC1(O)CCC(C(=O)NCc2c(C)cc(Cl)cc2Cl)c2cccnc21` (centres unmarked) [Example 44, N-(2,4-dichloro-6-methylbenzyl)-8-hydroxy-8-((methyl-amino)methyl)-5,6,7,8-tetrahydro-quinoline-5-carboxamide], the concentration for half-maximal inhibition (IC50) at human P2X7 is under 0.05 µM; at rat P2X7 it was under 1 µM.

In the case of `O=C(NCc1cccc(C(F)(F)F)c1Cl)C1CCC(O)c2ncccc21` (centres unmarked) [Example 7, N-(2-chloro-3-(trifluoromethyl)benzyl)-8-hydroxy-5,6,7,8-tetrahydro-quinoline-5-carboxamide], the figures for the IC50 on human P2X7 and on rat P2X7 were under 0.05 µM and under 1 µM, respectively.

As for `O=C(N[C@@H]1CCCc2ccccc21)[C@]1(F)CC[C@H](O)c2ncccc21` [Example 189, (5S,8S)-5-fluoro-8-hydroxy-N-((R)-1,2,3,4-tetrahydronaphthalen-1-yl)-5,6,7,8-tetrahydroquinoline 5-carboxamide], the concentration for half-maximal inhibition (IC50) at human P2X7 was under 0.05 µM; at rat P2X7 it was under 1 µM.

Take `O=C(NCc1ncc(Cl)cc1Cl)[C@]1(F)CC[C@@](O)(CO)c2ncccc21` [Example 329, (5S,8S)-N-((3,5-dichloropyridin-2-yl)methyl)-5-fluoro-8-hydroxy-8-(hydroxymethyl)-5,8,7,8-tetrahydroquinoline-5-carboxamide]: the results for the IC50 against human P2X7 and at rat P2X7 were 0.05 to 0.1 µM and under 1 µM, respectively.

On to `O=C(NCc1ccc(F)cc1Cl)[C@]1(F)CC[C@H](O)c2ncccc21` [Example 135, (5S,8S)-N-(2-chloro-4-fluorobenzyl)-5-fluoro-8-hydroxy-5,6,7,8-tetrahydroquinoline-5-carboxamide], for which the 50% inhibitory concentration (IC50) against human P2X7 is under 0.05 µM; on rat P2X7, under 1 µM.

With `O=C(NCc1cccc(F)c1F)[C@]1(F)CC[C@H](O)c2ncccc21` [Example 208, (5S,8S)-N-(2,3-difluorobenzyl)-5-fluoro-8-hydroxy-5,6,7,8-tetrahydroquinoline-5-carboxamide], the 50% inhibitory concentration (IC50) on human P2X7 is 0.101 to 0.3 µM; on rat P2X7, under 1 µM.

`O=C(NCc1ccc(Cl)cc1Cl)[C@]1(F)CC[C@@](O)(CS(=O)(=O)CCO)c2ncccc21` [Example 300, (5S,8S)-N-(2,4-dichlorobenzyl)-5-fluoro-8-hydroxy-8-(((2-hydroxyethyl)sulfonyl)methyl)-5,6,7,8-tetrahydroquinoline-5-carboxamide]: the IC50 against human P2X7 was under 0.05 µM; on rat P2X7, under 1 µM.

Consider `O=C(NCc1c(Cl)ccc(Cl)c1Cl)[C@]1(F)CC[C@H](O)c2ncccc21` [Example 165, (5S,8S)-5-fluoro-8-hydroxy-N-(2,3,6-trichlorobenzyl)-5,6,7,8-tetrahydroquinoline-5-carboxamide], for which the figures for the IC50 on human P2X7 and on rat P2X7 were under 0.05 µM and under 1 µM, respectively.

For the molecule `O=C(NCc1ncc(Cl)cc1Cl)[C@]1(F)CC[C@H](O)c2ncccc21` [Example 177, (5S,8S)-N-((3,5-dichloropyridin-2-yl)methyl)-5-fluoro-8-hydroxy-5,6,7,8-tetrahydroquinoline-5-carboxamide], the half-inhibitory concentration (IC50) against human P2X7 was under 0.05 µM; at rat P2X7, under 1 µM.

As to `O=C(NCc1ccc(Br)cc1Cl)[C@@]1(F)CC[C@@H](O)c2ncccc21` [Example 153, (5R,8R)-N-(4-bromo-2-chlorobenzyl)-5-fluoro-8-hydroxy-5,6,7,8-tetrahydroquinoline-5-carboxamide], the IC50 against human P2X7 was under 0.05 µM; at rat P2X7, under 1 µM.

For the molecule `O=C(NCC(c1ccc(Cl)cc1)N1CCC(F)(F)CC1)[C@]1(F)CC[C@H](O)c2ncccc21` (stereo partly drawn) [Example 232, (5S,8S)-N-(2-(4-chlorophenyl)-2-(4,4-difluoropiperidin-1-yl)ethyl)-5-fluoro-8-hydroxy-5,6,7,8-tetrahydroquinoline-5-carboxamide], the IC50 on human P2X7 is under 0.05 µM; at rat P2X7, under 1 µM.

On to `O=C(NCc1ccc(Cl)c(F)c1Cl)[C@]1(F)CC[C@@](O)(CO)c2ncccc21` [Example 319, (5S,8S)-N-(2,4-dichloro-3-fluorobenzyl)-5-fluoro-8-hydroxy-8-(hydroxymethyl)-5,6,7,8-tetrahydroquinoline-5-carboxamide], for which the results for the half-maximal inhibitory concentration (IC50) on human P2X7 and at rat P2X7 were under 0.05 µM and under 1 µM, respectively.

Take `O=C(NCc1ccc(Cl)cc1F)[C@]1(F)CC[C@](O)(CO)c2ncccc21` [Example 315, (5S,8R)-N-(4-chloro-2-fluorobenzyl)-5-fluoro-8-hydroxy-8-(hydroxymethyl)-5,6,7,8-tetrahydroquinoline-5-carboxamide]: the results for the IC50 against human P2X7 and at rat P2X7 were 1 to 3 µM and under 1 µM, respectively.

Regarding `O=C(NCc1ccc(Cl)cc1C(F)(F)F)[C@]1(F)CC[C@H](O)c2ncccc21` [Example 157, (5S,8S)-N-(4-chloro-2-(trifiuoromethyl)benzyl)-5-fluoro-8-hydroxy-5,8,7,8-tetrahydroquinoline-5-carboxamide], the values for the half-inhibitory concentration (IC50) at human P2X7 and on rat P2X7 were under 0.05 µM and under 1 µM, respectively.

Take `N#Cc1ccc(CNC(=O)[C@]2(F)CC[C@H](O)c3ncccc32)c(F)c1` [Example 201, (5S,8S)-N-(4-cyano-2-fluorobenzyl)-5-fluoro-8-hydroxy-5,6,7,8-tetrahydroquinoline-5-carboxamide]: the half-inhibitory concentration (IC50) was 0.05 to 0.1 µM against human P2X7 and under 1 µM at rat P2X7.

For the molecule `Cc1cc(Cl)cc(Cl)c1CNC(=O)C1(F)CCC(O)c2ncccc21` (centres unmarked) [Example 18, N-(2,4-dichloro-6-methyl-benzyl)-5-fluoro-8-hydroxy-5,6,7,8-tetrahydroquinoline-5-carboxamide], the IC50 was under 0.05 µM against human P2X7 and under 1 µM on rat P2X7.

Take `O=C(NCc1cccc(C(F)(F)F)c1Cl)[C@@]1(F)CC[C@H](F)c2ncccc21` [Example 352, (5R,8S)-N-(2-chloro-3-(trifluoromethyl)benzyl)-5,8-difluoro-5,6,7,8-tetrahydroquinoline-5-carboxamide]: the IC50 at human P2X7 is under 0.05 µM; on rat P2X7, under 1 µM.

Turning to `CS(=O)(=O)C[C@]1(O)CC[C@@](F)(C(=O)NCc2ccc(F)cc2Cl)c2cccnc21` [Example 299, (5S,8S)-N-(2-chloro-4-fluorobenzyl)-5-fluoro-8-hydroxy-8-((methylsulfonyl)methyl)-5,6,7,8-tetrahydroquinoline-5-carboxamide], the half-maximal inhibitory concentration (IC50) against human P2X7 is 0.101 to 0.3 µM; at rat P2X7 it was under 1 µM.

For `CNCC1(O)CCC(F)(C(=O)NCc2c(C)cc(Cl)cc2Cl)c2cccnc21` (centres unmarked) [Example 46, N-(2,4-dichloro-6-methylbenzyl)-5-fluoro-8-hydroxy-8-((methyl-amino)methyl)-5,6,7,8-tetra-hydroquinoline-5-carboxamide], the concentration for half-maximal inhibition (IC50) at human P2X7 is under 0.05 µM; on rat P2X7, under 1 µM.

Regarding `O=C(NCc1ccc(Cl)cc1Cl)C1(F)CC(O)c2ncccc21` (centres unmarked) [Example 29, N-(2,4-dichlorobenzyl)-5-fluoro-7-hydroxy-6,7-dihydro-5H-cyclopenta[b]pyridine-5-carboxamide], the IC50 against human P2X7 was under 0.05 µM; at rat P2X7 it was under 1 µM.
